Assay results taken from ChEMBL document CHEMBL1201862, “PubChem BioAssay data set” (2004).
Calls of active or inactive are those of the source.

Experiments:
[1] = IC50 of Artemis nuclease activity blockers – biochemical, fluorescence intensity, dose response (AID 720701); assay type: functional;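 also: Artemis endonuclease enzyme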
[2] = biological target: Mitogen-activated protein kinase 10 (Homo sapiens, UniProt P53779); assay: Dose response biochemical screening assay for inhibitors of c-Jun N-Terminal Kinase 3 (JNK3). [Related pubchem assays: 746 ]
[3] = cytotoxicity in MITF-independent A375 cells – cell-based, CellTiter-Glo luminescence, dry powder, set 9, counter-screen for MITF modulator project, dose response (AID 651591); assay type: functional; conditions: A-375
[4] = growth inhibition of MALME3 cells – cell-based, CellTiter-Glo luminescence, dry powder, set 5, orthogonal assay for MITF inhibitor project, dose response (AID 651584); assay type: functional; conditions: MALME-3
[5] = MITF: Counter assay: A375 proliferation Measured in Cell-Based System Using Plate Reader - 2084-03_Inhibitor_Dose_DryPowder_Activity_Set8.; assay type: functional; conditions: A-375
[6] = MITF Orthogonal Assay: MALME3 CTG Assay Measured in Cell-Based System Using Plate Reader - 2084-04_Inhibitor_Dose_DryPowder_Activity_Set6.; assay type: functional; conditions: MALME-3
[7] = growth inhibition of SK-MEL-5 melanoma cells – cell-based, CellTiter-Glo luminescence, dry powder, set 8, orthogonal assay for MITF inhibitor project, dose response (AID 651586); assay type: functional
[8] = inhibitors of TRPM1-promoter reporter in SK-MEL-5 – cell-based, luciferase, dry powder, set 9, MITF inhibitor project, dose response (AID 651588); assay type: functional
[9] = MITF Orthogonal Assay: SK-MEL-5 CTG Assay Measured in Cell-Based System Using Plate Reader - 2084-02_Inhibitor_Dose_DryPowder_Activity_Set7.; assay type: functional
[10] = inhibitors of TRPM1-promoter reporter in SK-MEL-5 – cell-based, luciferase, dry powder, set 8, MITF inhibitor project, dose response (AID 624430); assay type: functional
[11] = Dd2 malaria parasite growth inhibition potency – SYBR Green, dry powder samples, dose response (AID 1159566); assay type: functional, cell-based;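 also: potency for growth inhibition with lower SYBR green DNA signal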
[12] = toxicity to human HepG2 hepatoma cells – cell-based, plate reader, dry powder samples, cytotoxicity control, dose response (AID 1159569); assay type: functional;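 also: inhibitor potency with signal falling toward the positive control level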
[13] = P. falciparum Dd2 growth inhibitors, dose response, SYBR Green, cherry-picked samples (AID 1159567); assay type: functional, cell-based
[14] = Dd2 parasite growth inhibition in erythrocytes – SYBR Green, dry powder samples, set 9, dose response (AID 1159568); assay type: functional, cell-based
[15] = growth inhibition of PfATP4-mutant resistant parasites – NITD609-resistant line, SYBR Green, dry powder, dose response (AID 1159571); assay type: functional, cell-based;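 also: parasites synchronized at ring stage by sorbitol before testing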
[16] = growth inhibition of yeast DHODH-expressing 3D7 parasites – SYBR Green, dry powder samples, dose response (AID 1159570); assay type: functional, cell-based;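 also: parasite growth measured after 72 hours of compound exposure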
[17] = Plasmodium falciparum Dd2 Sybr green parasite growth Measured in Cell-Based and Microorganism Combination System Using Plate Reader - 2153-01_Inhibitor_Dose_DryPowder_Activity_Set3.; assay type: functional
[18] = NIH-3T3 fibroblast cytotoxicity, dose response, cytotoxicity control, cell-based, fluorescence, Alamar Blue, secondary assay (AID 2327); assay type: functional;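 also: NIH-3T3 mouse fibroblasts cultured with fluconazole at 8 µg/mL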
[19] = biological target: T1, Mannose-6-phosphate isomerase (Homo sapiens, UniProt P34949); assay: MPI enzyme activity inhibition – biochemical, fluorescence intensity, coupled assay, primary screen (AID 1209)
T1 sequence (P34949 whole entry): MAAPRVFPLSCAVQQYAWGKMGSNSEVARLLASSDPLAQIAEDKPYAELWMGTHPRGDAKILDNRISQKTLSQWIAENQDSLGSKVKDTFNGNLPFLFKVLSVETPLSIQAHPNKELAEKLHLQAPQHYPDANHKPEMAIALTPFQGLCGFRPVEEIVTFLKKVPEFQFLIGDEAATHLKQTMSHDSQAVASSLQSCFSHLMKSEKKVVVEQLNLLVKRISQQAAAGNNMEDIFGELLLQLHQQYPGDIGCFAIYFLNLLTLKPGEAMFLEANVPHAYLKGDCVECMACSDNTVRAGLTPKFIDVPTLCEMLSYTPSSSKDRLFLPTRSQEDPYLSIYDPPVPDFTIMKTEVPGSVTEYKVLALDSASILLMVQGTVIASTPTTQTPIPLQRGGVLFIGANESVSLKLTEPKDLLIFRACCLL

[20] = biological target: Genome polyprotein (dengue virus type 2, UniProt P29990); assay: flavivirus cap methylation enzyme inhibition – biochemical, confirmation dose response, primary screen (AID 588689); assay type: functional
[21] = biological target: Eukaryotic translation initiation factor 4E (Mus musculus, UniProt P63073); assay: blockers of eIF4G binding by eIF4E – biochemical, TR-FRET, dose response (AID 855); assay type: functional;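 also: potency for disrupting eIF4E binding to eIF4GI seen as loss of FRET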
[22] = biological target: Glutathione-S-transferase (Schistosoma japonicum, UniProt Q26513); assay: GST-antibody interaction or FRET quenching – biochemical, TR-FRET, artefact control for Vif-APOBEC3G degradation inhibitor project, dose response (AID 1117362); assay type: functional
[23] = biological target: T1, Mannose-6-phosphate isomerase; assay: MPI inhibition at elevated mannose 6-phosphate – biochemical, fluorescence intensity, high mannose 6-phosphate, primary screen (AID 1220)
[24] = fluconazole-exposed Candida albicans growth modulators – fluorescence, retest, confirmation (AID 2467); assay type: functional, cell-based
[25] = biological target: Induced myeloid leukemia cell differentiation protein Mcl-1 (Homo sapiens, UniProt Q07820); assay type: functional
[26] = biological target: Nonstructural protein 1 (Influenza A virus, UniProt Q194T2); assay type: functional, Influenza A virus (A/California/07/2009(H1N1))
[27] = biological target: Neuropeptides B/W receptor type 1 (Homo sapiens, UniProt P48145); assay: Fluorescence-based dose response cell-based high throughput screening assay to identify antagonists of the G-protein coupled receptor 7 (GPR7). [Related pubchem assays: 1952 (Screening assay (GPR7 antagonists).), 1880 (Summary AID.)]; assay type: functional
[28] = biological target: Melanin-concentrating hormone receptor 1 (Homo sapiens, UniProt Q99705); assay: Fluorescence-based counterscreen for antagonists of the G-protein coupled receptor 7 (GPR7): cell-based high throughput dose response assay to identify antagonists of the melanin-concentrating hormone receptor 1 (MCHR1).; assay type: functional
[29] = biological target: NADPH oxidase 1 (Homo sapiens, UniProt Q9Y5S8); assay: Late-stage luminescence-based cell-based dose response assay to identify inhibitors of NADPH oxidase 1 (NOX1): Synthesized analogs 2.; assay type: functional
[30] = biological target: Aryl hydrocarbon receptor (Homo sapiens, UniProt P35869); assay: Luminescence-based cell-based high throughput dose response assay for activators of the Aryl Hydrocarbon Receptor (AHR). [Related pubchem assays: 2796 (Primary screen (AHR activators in singlicate)), 2845 (Confirmation screen (AHR activators in triplicate)), 434939 (Counterscreen (PXR activators in triplicate)), 2804 (Summary (AHR activators))]; assay type: ADME
[31] = viability loss in THP-1 monocytes – THP-1 cells, cytotoxicity control for Vif-APOBEC3G degradation inhibitor project, dose response (AID 1117359); assay type: functional; conditions: THP-1
[32] = test system: HEK293; assay: cells; conditions: Homo sapiens
[33] = test system: HEK293; assay: cells; conditions: Homo sapiens; remark: listed apart in the source

Sequence of Neuropeptides B/W receptor type 1 (P48145 whole entry): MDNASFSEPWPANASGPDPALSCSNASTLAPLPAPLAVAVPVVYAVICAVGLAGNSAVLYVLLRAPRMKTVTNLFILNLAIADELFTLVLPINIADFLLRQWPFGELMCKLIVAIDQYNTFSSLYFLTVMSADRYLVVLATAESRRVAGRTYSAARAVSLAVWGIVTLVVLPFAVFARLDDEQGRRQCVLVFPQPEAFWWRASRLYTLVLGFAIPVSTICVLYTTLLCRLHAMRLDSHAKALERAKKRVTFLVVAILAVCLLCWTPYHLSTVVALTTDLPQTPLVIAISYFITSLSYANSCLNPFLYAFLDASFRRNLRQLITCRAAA
Sequence of Induced myeloid leukemia cell differentiation protein Mcl-1 (Q07820 whole entry): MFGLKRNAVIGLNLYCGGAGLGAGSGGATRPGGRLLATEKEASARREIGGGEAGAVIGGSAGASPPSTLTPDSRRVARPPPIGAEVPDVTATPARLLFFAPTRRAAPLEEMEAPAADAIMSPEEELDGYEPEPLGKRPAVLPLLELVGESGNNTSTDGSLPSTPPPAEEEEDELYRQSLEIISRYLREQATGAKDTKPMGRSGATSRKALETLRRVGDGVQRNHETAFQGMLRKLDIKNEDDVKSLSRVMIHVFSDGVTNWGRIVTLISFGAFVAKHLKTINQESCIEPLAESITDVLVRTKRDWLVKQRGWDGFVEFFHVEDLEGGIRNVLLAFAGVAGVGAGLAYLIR
Sequence of Genome polyprotein (P29990 2492-3391 limits assumed): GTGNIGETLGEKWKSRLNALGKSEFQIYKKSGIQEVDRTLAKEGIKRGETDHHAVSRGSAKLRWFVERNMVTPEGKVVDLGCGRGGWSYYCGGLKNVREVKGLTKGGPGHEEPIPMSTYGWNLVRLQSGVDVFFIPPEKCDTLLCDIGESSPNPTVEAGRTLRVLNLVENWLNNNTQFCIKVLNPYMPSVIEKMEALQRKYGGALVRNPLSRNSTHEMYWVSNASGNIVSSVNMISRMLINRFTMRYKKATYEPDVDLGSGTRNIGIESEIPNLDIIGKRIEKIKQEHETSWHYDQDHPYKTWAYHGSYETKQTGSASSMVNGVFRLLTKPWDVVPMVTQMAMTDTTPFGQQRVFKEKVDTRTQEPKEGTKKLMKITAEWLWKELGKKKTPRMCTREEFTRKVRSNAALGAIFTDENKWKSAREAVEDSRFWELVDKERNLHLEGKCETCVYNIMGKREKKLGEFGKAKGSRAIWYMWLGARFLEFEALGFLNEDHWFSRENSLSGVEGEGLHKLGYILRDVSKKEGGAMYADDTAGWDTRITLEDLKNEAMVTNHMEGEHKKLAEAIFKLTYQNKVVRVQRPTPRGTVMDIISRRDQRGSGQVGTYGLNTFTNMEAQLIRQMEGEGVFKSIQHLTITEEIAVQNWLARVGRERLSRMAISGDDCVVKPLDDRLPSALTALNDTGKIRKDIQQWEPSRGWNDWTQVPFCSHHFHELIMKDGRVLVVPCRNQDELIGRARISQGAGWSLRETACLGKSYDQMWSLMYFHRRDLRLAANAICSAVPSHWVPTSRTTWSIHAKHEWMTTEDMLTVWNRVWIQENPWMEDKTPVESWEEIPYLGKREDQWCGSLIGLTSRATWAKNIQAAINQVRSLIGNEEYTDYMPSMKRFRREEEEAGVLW
Sequence of Aryl hydrocarbon receptor (P35869 whole entry): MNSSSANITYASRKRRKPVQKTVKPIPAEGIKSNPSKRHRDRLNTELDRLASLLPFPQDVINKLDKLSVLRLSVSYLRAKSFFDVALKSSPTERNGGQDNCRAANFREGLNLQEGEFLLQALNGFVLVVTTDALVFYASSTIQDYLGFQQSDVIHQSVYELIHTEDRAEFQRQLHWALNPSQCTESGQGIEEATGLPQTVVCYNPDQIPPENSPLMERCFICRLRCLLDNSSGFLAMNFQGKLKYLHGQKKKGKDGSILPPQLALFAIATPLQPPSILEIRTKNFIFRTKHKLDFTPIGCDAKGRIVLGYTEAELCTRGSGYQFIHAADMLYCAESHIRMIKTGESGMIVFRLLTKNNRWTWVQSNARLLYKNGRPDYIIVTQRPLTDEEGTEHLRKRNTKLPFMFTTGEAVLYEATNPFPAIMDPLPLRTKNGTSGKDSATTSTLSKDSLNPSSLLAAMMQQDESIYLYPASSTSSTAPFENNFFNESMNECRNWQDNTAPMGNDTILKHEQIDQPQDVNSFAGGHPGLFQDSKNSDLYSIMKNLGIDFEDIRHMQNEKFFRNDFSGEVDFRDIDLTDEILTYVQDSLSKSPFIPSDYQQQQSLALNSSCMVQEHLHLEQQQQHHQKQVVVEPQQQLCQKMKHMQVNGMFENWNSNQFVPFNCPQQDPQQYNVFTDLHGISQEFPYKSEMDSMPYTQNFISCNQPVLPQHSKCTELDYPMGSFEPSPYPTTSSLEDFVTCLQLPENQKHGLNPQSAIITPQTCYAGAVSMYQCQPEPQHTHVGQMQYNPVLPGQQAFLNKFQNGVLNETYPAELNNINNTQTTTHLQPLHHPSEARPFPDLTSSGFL
Sequence of Mitogen-activated protein kinase 10 (P53779 whole entry): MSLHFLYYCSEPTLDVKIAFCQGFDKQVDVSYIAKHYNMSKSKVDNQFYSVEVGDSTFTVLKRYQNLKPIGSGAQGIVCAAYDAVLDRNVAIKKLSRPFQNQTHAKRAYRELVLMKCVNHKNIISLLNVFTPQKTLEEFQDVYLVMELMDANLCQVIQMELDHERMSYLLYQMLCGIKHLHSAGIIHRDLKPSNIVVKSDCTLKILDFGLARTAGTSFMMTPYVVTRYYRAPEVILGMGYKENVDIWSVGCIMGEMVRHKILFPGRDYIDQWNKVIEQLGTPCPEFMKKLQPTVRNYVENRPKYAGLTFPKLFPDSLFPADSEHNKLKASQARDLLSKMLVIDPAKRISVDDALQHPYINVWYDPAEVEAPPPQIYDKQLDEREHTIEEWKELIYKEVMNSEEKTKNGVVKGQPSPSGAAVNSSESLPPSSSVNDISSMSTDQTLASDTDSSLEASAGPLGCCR
Sequence of Nonstructural protein 1 (Q194T2 whole entry): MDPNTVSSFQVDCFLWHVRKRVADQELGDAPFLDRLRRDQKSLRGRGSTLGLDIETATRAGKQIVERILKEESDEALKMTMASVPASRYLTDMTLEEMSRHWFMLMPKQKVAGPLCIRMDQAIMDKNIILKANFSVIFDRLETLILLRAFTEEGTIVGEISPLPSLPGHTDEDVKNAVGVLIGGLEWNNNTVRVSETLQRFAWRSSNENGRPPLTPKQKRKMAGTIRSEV
Sequence of NADPH oxidase 1 (Q9Y5S8 whole entry): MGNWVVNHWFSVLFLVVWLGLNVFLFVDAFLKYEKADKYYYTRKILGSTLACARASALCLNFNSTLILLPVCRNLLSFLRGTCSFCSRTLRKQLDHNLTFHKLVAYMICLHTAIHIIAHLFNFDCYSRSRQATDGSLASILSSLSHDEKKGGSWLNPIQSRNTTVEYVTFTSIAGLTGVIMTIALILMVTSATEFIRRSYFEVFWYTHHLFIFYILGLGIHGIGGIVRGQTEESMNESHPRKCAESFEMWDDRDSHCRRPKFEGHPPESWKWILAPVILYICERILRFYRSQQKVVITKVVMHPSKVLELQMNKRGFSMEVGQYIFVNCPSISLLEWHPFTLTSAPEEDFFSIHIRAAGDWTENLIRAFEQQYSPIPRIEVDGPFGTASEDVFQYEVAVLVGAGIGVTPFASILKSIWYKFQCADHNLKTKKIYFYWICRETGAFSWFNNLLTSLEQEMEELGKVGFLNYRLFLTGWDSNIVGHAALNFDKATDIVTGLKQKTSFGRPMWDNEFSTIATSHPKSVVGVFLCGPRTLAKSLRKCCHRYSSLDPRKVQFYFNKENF
Sequence of Melanin-concentrating hormone receptor 1 (Q99705 whole entry): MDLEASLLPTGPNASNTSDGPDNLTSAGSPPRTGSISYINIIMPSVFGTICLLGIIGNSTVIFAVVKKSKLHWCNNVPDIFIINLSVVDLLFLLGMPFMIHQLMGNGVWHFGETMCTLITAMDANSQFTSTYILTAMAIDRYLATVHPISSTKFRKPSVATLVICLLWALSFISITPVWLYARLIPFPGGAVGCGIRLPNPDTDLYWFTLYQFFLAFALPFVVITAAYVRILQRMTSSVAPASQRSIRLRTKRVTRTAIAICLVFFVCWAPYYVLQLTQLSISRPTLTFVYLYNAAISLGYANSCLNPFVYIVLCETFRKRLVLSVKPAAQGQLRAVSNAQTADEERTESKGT
Sequence of Eukaryotic translation initiation factor 4E (P63073 whole entry): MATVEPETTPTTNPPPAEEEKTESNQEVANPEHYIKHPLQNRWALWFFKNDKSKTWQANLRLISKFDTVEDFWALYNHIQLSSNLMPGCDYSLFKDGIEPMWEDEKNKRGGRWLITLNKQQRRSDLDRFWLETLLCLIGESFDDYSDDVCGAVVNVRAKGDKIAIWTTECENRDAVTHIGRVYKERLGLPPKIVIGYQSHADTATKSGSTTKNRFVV
Sequence of Glutathione-S-transferase (Q26513 whole entry): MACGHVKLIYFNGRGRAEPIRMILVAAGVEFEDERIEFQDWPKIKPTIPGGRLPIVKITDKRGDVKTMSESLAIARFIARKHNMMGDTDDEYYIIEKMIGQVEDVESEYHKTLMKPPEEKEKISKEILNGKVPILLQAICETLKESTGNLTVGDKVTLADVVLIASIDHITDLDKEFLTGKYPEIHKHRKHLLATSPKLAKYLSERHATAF

In the case of `Cc1c(-c2nc(N)nc(Nc3ccccc3)n2)oc2ccccc12`, the IC50 [1] is reported as 7.66 µM (active) and the IC50 [2] is reported as > 93.1 µM (not active).

For `CN1CCN(C2=C(Nc3ccc(F)cc3F)C(=O)c3ccccc3C2=O)CC1`, the AC50 [3] was > 70 µM (inactive), the AC50 [4] was 25.4 µM (active) and the AC50 [5] was > 70 µM (inactive). For the same compound, the AC50 [6] was 25.4 µM (active), the AC50 [7] was > 70 µM (inactive) and the AC50 [8] was 17.5 µM (active). For the same compound, the AC50 [9] was 9.87 µM (active) and the AC50 [10] was 5.36 µM (active).

In the case of `CCCC(=O)Nc1ccc2c(c1)OC[C@@H](C)N(Cc1cc(F)ccc1F)C[C@@H](C)[C@H](OC)CN(C)C2=O`, the AC50 [11] is reported as 0.322 µM (active), the AC50 [12] is reported as > 100 µM (inactive) and the AC50 [13] is reported as 0.817 µM (active). The AC50 [14] was 0.978 µM (active), the AC50 [15] was 2.81 µM (active) and the AC50 [16] was 7.15 µM (active). For the same compound, the AC50 [17] was 2.07 µM (active).

In the case of `CCn1c(C)nc2cc(C(=O)N/N=C/c3ccc(O)c(O)c3O)ccc21`, the EC50 [18] is reported as 104 µM (active), the IC50 [19] is reported as 7.02 µM (active) and the IC50 [20] is reported as 21.7 µM (active). For the same compound, the IC50 [21] was 27.5 µM (active), the IC50 [22] was 45 µM (active) and the IC50 [23] was 8.47 µM (active). The EC50 [24] was 1.6 µM (active), the IC50 [25] was > 54 µM (active) and the IC50 [26] was 16.6 µM (active).

For `O=C(NC1CCCC1)C(c1ccccc1)N(Cc1ccco1)C(=O)Cc1cccs1` (stereo not drawn), the IC50 [27] was > 43.8 µM (not active) and the IC50 [28] was 4.76 µM (active).

In the case of `CN1c2ccccc2Sc2cc(NC(=O)c3ccc(N=[N+]=[N-])cc3)ccc21`, the IC50 [29] is reported as 17.7 µM (active).

With `Nc1cccc(Nc2ncnc3ccccc23)c1` the EC50 [30] was 3.58 µM (active).

For `O=C(N/N=C/C(Br)=C/c1ccccc1)c1cc(-c2ccco2)[nH]n1`, the CC50 [31] was 33.1 µM (active), the EC50 [32] was > 59.6 µM (inactive) and the EC50 [33] was > 59.6 µM (inactive).
